Data reported in patent US5086049A, “7[4-(5 methyl-2-oxo-1,3-dioxalen-4-yl)methyl 1-piperzinyl]-4-oxo-4H-[1,3]thiazeto[3,2-a]quinoline-3-carboxylic acids” (Nipponshinyaku Co., Ltd., priority 1987, dated 1992).
In brackets after ≈: the same amount, converted by molar mass. Read-outs that look alike come from different tables or passages of the source.

Experiments:
P. aeruginosa E-2 = assay: Therapeutic effect on infection in mice, P. aeruginosa; type: in vivo, ddY strain male mice; conditions: P. aeruginosa E-2, 7.5×10^4 CFU/mouse i.p.; drug orally once 2 hours after inoculation; survival after one week, Probit method
Experimental: (§1) Test method: E. coli KC-14 and P. aeruginosa E-2 were suspended in 5% mucin and 0.5 ml of the suspension was injected intraperitoneally to ddY strain male mice (body weight: ca. 20 g; four weeks age; 10 mice per group). The amount of the bacteria inoculated was 5.1×10^4 CFU/mouse for E. coli and 7.5×10^4 CFU/mouse for P. aeruginosa. The drug was given orally once after 2 hours of inoculation and, out of the survival rate after one week, an ED50 was calculated by a Probit method. Ofloxacin was used as the comparison/control.

E. coli KC-14 = assay: Therapeutic effect on infection in mice, E. coli; type: in vivo, ddY strain male mice; conditions: E. coli KC-14, 5.1×10^4 CFU/mouse i.p.; drug orally once 2 hours after inoculation; survival after one week, Probit method
Experimental: as §1

[1] = system: Escherichia coli N1JH JC-2; assay: MIC by agar plate dilution method; type: cell-based
Experimental: (§2) Test Method: In accordance with a standard method by Japan Chemotherapeutic Society [Chemotherapy, 29(1), pages 76-79, 1981], agar plate dilution method was used and the MIC was measured. Thus, bouillon for measuring sensitivity was used and the bacterial liquid cultured at 37° C. for 18 hours was diluted to an extent of 10^6 CFU/ml using said medium. This was inoculated to an agar medium containing drug for measuring sensitivity using a microplanter, cultured at 37° C. for 18 hours, and MIC was measured. Ofloxacin was used for comparison/control.
(§3) The compound of Example 2 was used as representative of the compounds of the present invention and ofloxacin was used as the Comparison/Control.

[2] = system: Shigella flexneri 2a EW-10; assay: MIC by agar plate dilution method; type: cell-based; conditions: 2AEW10, 10^6 CFU/ml, 37° C., 18 hours
Experimental: as §2, §3

[3] = system: Klebsiella pneumoniae NCTC 9632; assay: MIC by agar plate dilution method; type: cell-based
Experimental: as §2, §3

[4] = system: Bacillus subtilis ATCC 6633; assay: MIC by agar plate dilution method; type: cell-based; conditions: ATCC6633, 10^6 CFU/ml, 37° C., 18 hours
Experimental: as §2, §3

[5] = system: Streptococcus pneumoniae Type I; assay: MIC by agar plate dilution method; type: cell-based; conditions: 10^6 CFU/ml, 37° C., 18 hours
Experimental: as §2, §3

[6] = system: Streptococcus pyogenes S-23; assay: MIC by agar plate dilution method; type: cell-based; conditions: S23, 10^6 CFU/ml, 37° C., 18 hours
Experimental: as §2, §3

[7] = system: Proteus mirabilis IFO 3849; assay: MIC by agar plate dilution method; type: cell-based; conditions: IFO3849, 10^6 CFU/ml, 37° C., 18 hours
Experimental: as §2, §3

[8] = system: Staphylococcus aureus 209-P JC-1; assay: MIC by agar plate dilution method; type: cell-based; conditions: 10^6 CFU/ml, 37° C., 18 hours
Experimental: as §2, §3

[9] = system: Pseudomonas aeruginosa IFO 3445; assay: MIC by agar plate dilution method; type: cell-based; conditions: IFO3445, 10^6 CFU/ml, 37° C., 18 hours
Experimental: as §2, §3

[10] = system: Serratia marcescens IFO 3736; assay: MIC by agar plate dilution method; type: cell-based; conditions: IFO3736, 10^6 CFU/ml, 37° C., 18 hours
Experimental: as §2, §3

SMILES: Cc1oc(=O)oc1CN1CCN(c2c(F)cc3c(=O)c(C(=O)O)c4n(c3c2F)C(C)S4)CC1 (stereo not drawn) [Example 8, 6,8-Difluoro-1-methyl-7-[4-(5-methyl-2-oxo-1,3-dioxolen-4-yl)methyl-1-piperazinyl]-4-oxo-4-[1,3]-thiazeto[3,2-a]quinoline-3-carboxylic acid]
- ED50 (P. aeruginosa E-2): 0.125 mg/mouse
- ED50 (E. coli KC-14): 0.0078 mg/mouse

SMILES: CC1COc2c(N3CCN(C)CC3)c(F)cc3c(=O)c(C(=O)O)cn1c23 (racemic) [Ofloxacin, reference compound]
- ED50 (P. aeruginosa E-2): 0.692 mg/mouse
- ED50 (E. coli KC-14): 0.011 mg/mouse
- MIC ([1]; N1JHJC2, Escherichia coli N1JH JC-2, 10^6 CFU/ml, 37° C., 18 hours, read-out: MIC): 0.1 µg/mL (≈ 0.277 µM)
- MIC [2]: 0.025 µg/mL (≈ 0.0692 µM)
- MIC ([3]; NCTC9632, Klebsiella pneumoniae NCTC 9632, 10^6 CFU/ml, 37° C., 18 hours, read-out: MIC): 0.05 µg/mL (≈ 0.138 µM)
- MIC [4]: 0.1 µg/mL (≈ 0.277 µM)
- MIC [5]: 1.56 µg/mL (≈ 4.32 µM)
- MIC [6]: 1.56 µg/mL (≈ 4.32 µM)
- MIC [7]: 0.39 µg/mL (≈ 1.08 µM)
- MIC [8]: 0.39 µg/mL (≈ 1.08 µM)
- MIC [9]: 1.56 µg/mL (≈ 4.32 µM)
- MIC [10]: 0.78 µg/mL (≈ 2.16 µM)

SMILES: Cc1oc(=O)oc1CN1CCN(c2cc3c(cc2F)c(=O)c(C(=O)O)c2n3C(C)S2)CC1.Cl (stereo not drawn) [Example 3, 6-Fluoro-1-methyl-7-[4-(5-methyl-2-oxo-1,3-dioxolen-4-yl)methyl-1-piperazinyl]-4-oxo-4H-[1,3]thiazeto[3,2-a]quinoline-3-carboxylic acid hydrochloride]
- ED50 (P. aeruginosa E-2): 0.125 mg/mouse
- ED50 (E. coli KC-14): 0.0078 mg/mouse

SMILES: CS(=O)(=O)O.Cc1oc(=O)oc1CN1CCN(c2cc3c(cc2F)c(=O)c(C(=O)O)c2n3C(C)S2)CC1 (stereo not drawn) [Example 4, 6-Fluoro-1-methyl-7-[4-(5-methyl-2-oxo-1,3-dioxolen-4-yl)methyl-1-piperazinyl]-4-oxo-4H-[1,3]thiazeto[3,2-a]quinoline-3-carboxylic acid methanesulfonate]
- ED50 (P. aeruginosa E-2): 0.125 mg/mouse
- ED50 (E. coli KC-14): 0.0078 mg/mouse

SMILES: Cc1oc(=O)oc1CN1CCN(c2cc3c(cc2F)c(=O)c(C(=O)O)c2n3C(C)S2)CC1 (stereo not drawn) [Example 2]
- ED50 (P. aeruginosa E-2): 0.154 mg/mouse
- ED50 (E. coli KC-14): 0.0078 mg/mouse
- MIC ([1]; Escherichia coli, N1JHJC2, 18 h): 0.0125 µg/mL (≈ 0.0271 µM)
- MIC [2]: 0.0125 µg/mL (≈ 0.0271 µM)
- MIC ([3]; Klebsiella pneumoniae, NCTC9632, 18 h): 0.0125 µg/mL (≈ 0.0271 µM)
- MIC [4]: 0.05 µg/mL (≈ 0.108 µM)
- MIC [5]: 0.39 µg/mL (≈ 0.845 µM)
- MIC [6]: 0.39 µg/mL (≈ 0.845 µM)
- MIC [7]: 0.025 µg/mL (≈ 0.0542 µM)
- MIC [8]: 0.1 µg/mL (≈ 0.217 µM)
- MIC [9]: 0.2 µg/mL (≈ 0.433 µM)
- MIC [10]: 0.2 µg/mL (≈ 0.433 µM)

SMILES: CCOC(=O)c1c2n(c3cc(N4CCN(Cc5oc(=O)oc5C)CC4)c(F)cc3c1=O)C(C)S2 (stereo not drawn) [Example 1, Ethyl 6-fluoro-1-methyl-7-[4-(5-methyl-2-oxo-1,3-dioxolen-4yl)methyl-1-piperazinyl]-4oxo-4H-[1,3-]thiazeto[3,2-a]quinoline-3-carboxylate]
- ED50 (P. aeruginosa E-2): 0.354 mg/mouse

SMILES: COc1c(N2CCN(Cc3oc(=O)oc3C)CC2)c(F)cc2c(=O)c(C(=O)O)c3n(c12)C(C)S3 (stereo not drawn) [Example 14, 6-Fluoro-8-methoxy-1-methyl-7-[4-(5-methyl-2-oxo-1,3-dioxolen-4-yl)methyl-1-piperazinyl]-4-oxo-4H-[1,3]-thiazeto[3,2-a]quinoline-3-carboxylic acid]
- ED50 (P. aeruginosa E-2): 0.427 mg/mouse
- ED50 (E. coli KC-14): 0.0152 mg/mouse
